# Columns and labels:
# Type in all cases: cell-based
# [1] = system: MCL-1-addicted cancer cell-line, H23; test: apoptosis induction in MCL-1-addicted cancer cell line H23; settings: H23 cells
# [2] = system: DMS53, SW1417, and H82 cell lines; test: selective apoptotic induction in cell lines addicted to BCL-2, BCL-XL or MCL-1; settings: MCL-1 addicted cancer cell line (H82) over BCL-2 (DMS53) or BCL-XL (SW1417) addicted cancer cell lines; FIG. 2B
# [3] = system: MCL-1-addicted cancer cell-line, H82; test: apoptosis induction in MCL-1-addicted cancer cell line H82; settings: H82 cells
# [4] = 1 µM of compound, FIG. 1B legend
smiles,measurement,setting,value
CCOC(=O)c1c(C)oc2cc(Br)c(NS(=O)(=O)c3ccc(OC)cc3)cc12 [Compound 1],apoptosis induction,"[1]; 1 μM of compound, FIG. 1B",robust apoptosis
same,apoptosis induction,[1]; [4],robust apoptosis
same,selectivity of apoptosis induction,[2],selectively induce apoptosis
same,apoptosis induction,"[3]; 1 μM of compound, FIG. 1B",robust apoptosis
same,apoptosis induction,[3]; [4],robust apoptosis
